Entries after “also recorded” stand apart in the source; their conditions may differ. Where no end group is shown, it is not given here.
Tests used:
GIP receptor = assay: Proximity ligation assay (PLA) CART-GIP receptor (specificity control); format: binding, rat; details: control experiment, goat anti-CART with rabbit anti-GIP receptor
Procedure: (§1) INS-1 832/13 cells were seeded in 8-well tissue culture chambers (Sarstedt, Nümbrecht, Germany). 10^−7M rat CARTp55-102 (Phoenix Pharmaceuticals, Burlingame, CA) was added to fresh media and cells were incubated for 5 min in a humidified atmosphere (37°C, 5% CO2). Cells were rinsed quickly in ice-cold 1XPBS and then washed twice with ice-cold PBS. Cells were then fixed for 20 min in 4% paraformaldehyde, washed 2 × 10 min in 1XPBS and permeabilized for 15 min in PBS +0.25% Triton X-100. Proximity ligation assay (PLA) (DuoLink In situ Red Starter Kit Goat/Rabbit, Sigma Aldrich) was performed according to the instructions provided by the manufacturers. The following antibody combinations were used for the PLA: goat anti-GPR162 (sc-138323, dilution 1:500, Santa Cruz) with rabbit anti-CART (code 2059A, dilution 1:5000, kindly provided by Dr. Jes T. Clausen, Novo Nordisk, Måløv, Denmark), and goat anti-CART (code sc-18068, dilution 1:400, Santa Cruz) with rabbit anti-GPR162 (code PA5-33655, dilution 1:500, Thermo Scientific). Anti-rabbit GPR160 (code PA5-33650) was combined with anti-goat CART (code sc-18068 from Santa Cruz). Anti-rabbit GNA13 (PA5-100644) was combined with anti-goat GPR162 (sc-138323). Negative controls were omission of both antibodies and the combination of the CART antibody with an antibody toward a receptor with a known ligand. […]

[1] = tested on: dorsal horn of the spinal cord; details: intrathecal injections; cited from earlier work
Text: (§2) When studying neuropathic pain, Yosten et al.[11] found GPR160 to be necessary for CARTp-mediated cell activation in cell culture. […] However, whether GPR160 is a receptor for CART in the b ...

PC-12 cells = details: RNA interference of Gpr160; cited from earlier work
Text: as §2

INS-1 832/13 cells [2] = details: cited from earlier work
Text: (§3) GPR162 was identified as the most CART-affected orphan receptor in INS-1 832/13 cells. […] By showing that CART binds to GPR162 and that biological effects of CART are reduced or ablated after Gpr162 KD, we propose that GPR162 acts as a CART receptor in beta cells. We also established expression of GPR162 in a majority of human and mouse beta cells. Moderate GPR162 immunoreactivity was evident across the cytoplasm and more intense immunoreact ...

AtT20 = details: exogenous CART; cited from earlier work
Text: as §3

GPR162 = assay: Proximity ligation assay (PLA) CART-GPR162 in INS-1 832/13 cells; format: binding, rat
Procedure: as §1

GPR160 = assay: Proximity ligation assay (PLA) CART-GPR160 in INS-1 832/13 cells; format: binding, rat; details: 10^-7M CARTp55-102, 15 minutes (Figure S3B), n = 8
Procedure: as §1, with “10^−7M rat CARTp55-102 (Phoenix Pharmaceuticals, Burlingame, CA) was added to fresh media and cells were incubated for 5 min in a humidified atmosphere (37°C, 5% CO2).” left out

INS-1 832/13 cells [3] = assay: Actin staining (phalloidin) in INS-1 832/13 cells; format: cell-based, rat; details: 10^-7M CARTp55-102, 24 h, n = 6
Procedure: INS-1 832/13 cells (a rat insulinoma cell line of male origin) were cultured in RPMI 1640 medium (Sigma Aldrich, St. Louis, MO) containing 2 g/L D-glucose, supplemented with 10% FBS, 10 mM HEPES, 1 mM sodium pyruvate and 50 μM β-mercaptoethanol (Sigma Aldrich) in a humidified atmosphere (37°C, 5% CO2). For investigations of actin architecture, INS-1 832/13 cells were seeded in 8-well chamber slides (Sarstedt) and transfected as described below before being fixed, permeabilized and stained with phalloidin (Phalloidin-iFluor488, Abcam, Cambridge, UK) for 60 min. Nuclei were counter-stained with DAPI and F-actin was visualized using Phalloidin-iFluor488 (Abcam). Phalloidin staining was performed for 60 min at a dilution of 1:1000 (in PBS +0.25% Triton X-100). Phalloidin intensity was quantified using the ImageJ software.

## CARTp55-102: Rat, mouse CARTp55-102 (Phoenix Pharmaceuticals, Cat#003-62); human form Cat#003-60; cocaine- and amphetamine-regulated transcript peptide (IPIYEKKYGQVPMCDAGEQCAVRKGARIGKLCDCPRGTSCNSFLLKCL; ends and bridges not checked; cysteine pairing not given here)
GIP receptor
  CART-GIP receptor interaction (PLA control): no interaction was found between CART and the GIP receptor
[1]
  Phosphorylation of ERK and CREB: induced phosphorylation of ERK and CREB
PC-12 cells
  ERK phosphorylation after Gpr160 RNA interference: RNA interference of Gpr160 prevented CART from activating c-FOS expression and phosphorylation of ERK in vitro in KATO III cells and PC-12 cells, respectively
INS-1 832/13 cells [2]
  cAMP: increase cAMP
AtT20
  Activation of AtT20: capable of activating AtT20
GPR162; 10^-7M rat CARTp55-102, 5 min, 37°C, n = 8
  CART-GPR162 interaction (PLA): confirmed an interaction between GPR162 and CART
GPR162; Gpr162 siRNA vs control cells, 10^-7M CARTp55-102, n = 8, p < 0.005
  Reduction of CART-GPR162 interaction (PLA) in Gpr162 siRNA cells: 90%
GPR160
  CART-GPR160 interaction (PLA): no
GPR160; listed as CART
  CART-GPR160 interaction (PLA): failed to detect
INS-1 832/13 cells [3]; listed as CART
  Effect of CARTp on actin staining in Gpr162 KD cells: near-complete abolishment
INS-1 832/13 cells [3]; listed as CARTp
  Effect of CARTp on actin staining in Gpr162 KD cells: without effect; also recorded: lost in Gpr162 KD cells
INS-1 832/13 cells [3]; control cells, phalloidin
  Increase in actin staining: approximately 2 -fold

— paper PMC10709007, “GPR162 is a beta cell CART receptor” (iScience, 2023)
